Laboratory results reported in ChEMBL document CHEMBL1201862, “PubChem BioAssay data set” (2004).
Active and inactive are the calls of the source.

Key:
[1] = target: Heat shock protein HSP 90-alpha (Homo sapiens, UniProt P07900); assay type: functional, organism-based
NS3 = NS3 (Hepatitis C virus, UniProt A3EZJ3); experiment: PubChem AID 2173; design: species or system Hepacivirus hominis
[2] = target: T1, Serine/threonine-protein phosphatase (Candida dubliniensis (strain CD36 / CBS 7987 / NCPF 3949 / NRRLY-17841) (Yeast), UniProt B9W6M3); experiment: Fluorescence Cell-Based Secondary Assay to Identify Inhibitors of Calcineurin. [Related pubchem assays (depositor defined):AID1979, AID2007]; assay type: functional
T1 sequence (B9W6M3 whole entry): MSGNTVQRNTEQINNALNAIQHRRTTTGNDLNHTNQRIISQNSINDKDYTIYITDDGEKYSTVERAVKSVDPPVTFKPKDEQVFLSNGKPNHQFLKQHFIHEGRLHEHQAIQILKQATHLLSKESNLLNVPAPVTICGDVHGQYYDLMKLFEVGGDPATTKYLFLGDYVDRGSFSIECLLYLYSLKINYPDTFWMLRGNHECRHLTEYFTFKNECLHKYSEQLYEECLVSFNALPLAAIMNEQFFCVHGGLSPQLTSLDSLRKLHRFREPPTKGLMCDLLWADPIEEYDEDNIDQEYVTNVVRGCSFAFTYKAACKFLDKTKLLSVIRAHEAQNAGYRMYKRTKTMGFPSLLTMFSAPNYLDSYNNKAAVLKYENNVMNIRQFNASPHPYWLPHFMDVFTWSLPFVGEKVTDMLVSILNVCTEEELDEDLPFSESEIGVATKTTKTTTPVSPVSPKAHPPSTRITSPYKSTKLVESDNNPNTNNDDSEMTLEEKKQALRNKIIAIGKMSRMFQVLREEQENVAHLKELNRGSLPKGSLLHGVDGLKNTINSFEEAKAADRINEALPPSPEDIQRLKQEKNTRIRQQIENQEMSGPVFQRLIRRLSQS

[3] = target: T2, Heat shock factor protein 1 (Mus musculus, UniProt P38532); experiment: enhancement of HSF1-driven luciferase signal – cell-based, NIH3T3, luminescence, dose retest, confirmation (AID 435004); assay type: functional;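 note: stress induced by proteasome inhibitor MG132 added 30 min after compound; luciferase reporter driven by HSF1 response element in NIH3T3 cells; actives raise luminescence as potentiators of the MG132 stress response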
T2 sequence (P38532 whole entry): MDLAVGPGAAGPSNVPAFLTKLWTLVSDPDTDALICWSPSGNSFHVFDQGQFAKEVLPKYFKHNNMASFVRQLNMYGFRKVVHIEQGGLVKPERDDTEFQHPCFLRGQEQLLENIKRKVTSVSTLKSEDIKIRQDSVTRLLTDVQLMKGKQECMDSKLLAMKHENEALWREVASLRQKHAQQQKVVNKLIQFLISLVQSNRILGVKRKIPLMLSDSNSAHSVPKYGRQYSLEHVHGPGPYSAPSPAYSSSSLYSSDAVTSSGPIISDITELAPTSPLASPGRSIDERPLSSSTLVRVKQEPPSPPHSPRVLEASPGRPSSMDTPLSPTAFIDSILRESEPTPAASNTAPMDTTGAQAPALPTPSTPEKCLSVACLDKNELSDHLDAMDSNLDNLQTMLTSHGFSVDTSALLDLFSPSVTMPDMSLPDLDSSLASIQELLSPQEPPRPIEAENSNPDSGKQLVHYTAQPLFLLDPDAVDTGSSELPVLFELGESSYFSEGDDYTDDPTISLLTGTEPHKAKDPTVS

[4] = Trypanosoma cruzi growth suppression in host cells – NIH3T3 host cells, beta-gal luminescence, confirmation (AID 2044); assay type: functional, cell-based;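 note: intracellular parasites grown in NIH/3T3 mouse fibroblasts as host cells; luminescent beta-galactosidase reporter signal from transgenic T. cruzi replicating inside host cells; inhibitors lower the luminescence signal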
BJ [5] = experiment: BJ-TERT-LT-ST fibroblast viability loss – cell-based, RAS-independent, luminescence, dose response (AID 1935); assay type: functional; conditions: Homo sapiens;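 note: BJ fibroblasts immortalized with TERT plus LT and ST oncogenes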
[6] = DRD fibroblast viability loss – cell-based, non-viral oncogenic, luminescence, dose response (AID 1934); assay type: functional; conditions: Homo sapiens
[7] = target: T1, Serine/threonine-protein phosphatase; experiment: blockers of CaCl2-induced CDRE-lacZ signaling – S. cerevisiae, luminescence, secondary, dose response (AID 2388); assay type: functional, cell-based;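 note: yeast reporter cells carrying a calcineurin-responsive lacZ construct stimulated with calcium chloride; luminescent beta-galactosidase reporter signal in whole cells rather than isolated phosphatase activity; potency for inhibition where a drop in reporter signal means calcineurin blockade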
[8] = target: ATP-dependent molecular chaperone HSP82 (Candida albicans (strain WO-1) (Yeast), UniProt C4YTQ8); experiment: steroid-induced GRE reporter decrease in yeast – S. cerevisiae, luminescence, Hsp90 inhibitor project, dose response (AID 2400); assay type: functional, cell-based;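 note: beta-galactosidase luminescence from glucocorticoid response element reporter as proxy for Hsp90 function; inhibitor potency where signal loss means Hsp90 inhibition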
Chain of ATP-dependent molecular chaperone HSP82 (C4YTQ8 whole entry): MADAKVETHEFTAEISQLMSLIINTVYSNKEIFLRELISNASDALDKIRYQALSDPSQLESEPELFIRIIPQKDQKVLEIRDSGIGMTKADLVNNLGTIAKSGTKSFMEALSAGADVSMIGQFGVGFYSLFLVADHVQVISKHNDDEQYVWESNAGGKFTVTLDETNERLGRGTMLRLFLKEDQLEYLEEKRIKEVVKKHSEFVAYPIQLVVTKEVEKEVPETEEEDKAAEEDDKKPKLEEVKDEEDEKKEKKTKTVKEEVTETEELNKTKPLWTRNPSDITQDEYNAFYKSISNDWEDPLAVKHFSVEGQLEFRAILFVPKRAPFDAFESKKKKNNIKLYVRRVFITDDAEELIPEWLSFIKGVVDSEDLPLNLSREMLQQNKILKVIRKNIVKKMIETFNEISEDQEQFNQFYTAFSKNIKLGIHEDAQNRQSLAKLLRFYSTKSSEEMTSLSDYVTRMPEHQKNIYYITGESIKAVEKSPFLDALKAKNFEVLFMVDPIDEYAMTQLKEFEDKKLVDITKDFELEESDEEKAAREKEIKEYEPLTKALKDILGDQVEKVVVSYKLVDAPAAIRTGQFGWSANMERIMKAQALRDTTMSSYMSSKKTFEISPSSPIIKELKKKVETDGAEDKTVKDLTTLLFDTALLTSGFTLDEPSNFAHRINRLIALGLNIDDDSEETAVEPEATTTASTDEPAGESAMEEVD

[9] = NIH-3T3 fibroblast cytotoxicity, dose response, cytotoxicity control, cell-based, fluorescence, Alamar Blue, secondary assay (AID 2327); assay type: functional;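 note: NIH-3T3 mouse fibroblasts cultured with fluconazole at 8 µg/mL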
[10] = NIH3T3 cell viability loss – ATP luminescence, mouse fibroblasts, counter-screen, dose response (AID 2010); assay type: functional, cell-based;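 note: cells exposed to compound for about 90 hours before reading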
[11] = fluconazole-exposed Candida albicans growth modulators – fluorescence, retest, confirmation (AID 2467); assay type: functional, cell-based
BJ [12] = experiment: cells; assay type: functional, cell-based; conditions: Homo sapiens
[13] = tested on: Streptococcus sp. 'group A'; experiment: Streptococcus pyogenes SK(-)GAS viability under kanamycin – luminescence, BacTiterGlo, confirmation, counter-screen for streptokinase expression inhibitor project, dose response (AID 1900); assay type: functional, organism-based
Streptococcus = experiment: GAS UMAA2166 growth inhibition – luminescence, BacTiterGlo, counter-screen for streptokinase expression inhibitor project, dose response (AID 1915); assay type: functional, organism-based;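 note: potency for reduction of bacterial viability or growth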
BJ [14] = experiment: BJ-TERT fibroblast viability loss – cell-based, RAS-independent, luminescence, dose response (AID 1933); assay type: functional; conditions: Homo sapiens
Streptokinase A = target: T3, Streptokinase A (Streptococcus pyogenes serotype M1, UniProt P10520); experiment: viability-normalized secreted streptokinase activity reduction – plasminogen activation absorbance, OD405, dose response (AID 1914); assay type: functional, Streptococcus pyogenes M1 GAS;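 note: secreted streptokinase activity via plasminogen activation per viability signal from cell pellet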
T3 sequence (P10520 whole entry): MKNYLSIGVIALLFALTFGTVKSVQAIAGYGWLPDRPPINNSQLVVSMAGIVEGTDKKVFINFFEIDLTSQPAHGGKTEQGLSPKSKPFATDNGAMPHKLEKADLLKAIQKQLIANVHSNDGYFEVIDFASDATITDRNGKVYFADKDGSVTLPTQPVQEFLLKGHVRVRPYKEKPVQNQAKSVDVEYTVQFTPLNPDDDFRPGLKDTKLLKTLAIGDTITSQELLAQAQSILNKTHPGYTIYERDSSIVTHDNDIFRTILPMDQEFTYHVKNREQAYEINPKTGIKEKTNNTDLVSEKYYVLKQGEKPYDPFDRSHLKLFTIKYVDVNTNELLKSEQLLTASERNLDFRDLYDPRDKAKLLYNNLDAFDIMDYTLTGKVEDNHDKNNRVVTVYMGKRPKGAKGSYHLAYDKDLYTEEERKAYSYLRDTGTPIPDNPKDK

HeLa = experiment: ATP-based viability loss in HeLa cells – cell-based, CellTiter-Glo luminescence, cherry-pick samples, cytotoxicity control for MITF activator project, dose response (AID 540259); assay type: functional; conditions: Homo sapiens
CAAX prenyl protease 2 [15] = target: CAAX prenyl protease 2 (Homo sapiens, UniProt Q9Y256); experiment: inhibition of Ras-converting CAAX protease Rce1 – biochemical, yeast membranes, quenched-peptide fluorescence, cherry-pick, dose response (AID 588849)
Chain of CAAX prenyl protease 2 (Homo sapiens, UniProt Q9Y256) (Q9Y256 whole entry): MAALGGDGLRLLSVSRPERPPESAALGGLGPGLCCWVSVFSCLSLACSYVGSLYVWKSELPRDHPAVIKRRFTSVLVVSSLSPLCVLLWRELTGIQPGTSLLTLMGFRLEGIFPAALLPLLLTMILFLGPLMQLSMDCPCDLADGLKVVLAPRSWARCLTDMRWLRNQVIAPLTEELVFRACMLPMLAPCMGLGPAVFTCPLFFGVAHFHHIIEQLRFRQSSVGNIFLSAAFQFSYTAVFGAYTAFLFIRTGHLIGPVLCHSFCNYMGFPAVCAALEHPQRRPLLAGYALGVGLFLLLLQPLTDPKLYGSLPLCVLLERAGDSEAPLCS

Kallikrein-7 = Kallikrein-7 (Homo sapiens, UniProt P49862); experiment: Fluorescence Intensity-based biochemical primary high throughput dose response assay to identify activators of kallikrein-7 (K7) zymogen.
Chain of Kallikrein-7 (P49862 whole entry): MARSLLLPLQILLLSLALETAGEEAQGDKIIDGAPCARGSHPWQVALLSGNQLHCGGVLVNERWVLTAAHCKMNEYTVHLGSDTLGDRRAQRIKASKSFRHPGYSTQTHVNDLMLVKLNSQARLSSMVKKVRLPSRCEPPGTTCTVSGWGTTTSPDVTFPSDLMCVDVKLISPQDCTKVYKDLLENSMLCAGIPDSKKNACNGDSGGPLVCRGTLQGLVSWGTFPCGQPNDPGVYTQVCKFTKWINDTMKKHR

CAAX prenyl protease 2 [16] = target: CAAX prenyl protease 2 (Saccharomyces cerevisiae S288c, UniProt Q03530); assay type: biochemical
Chain of CAAX prenyl protease 2 (Saccharomyces cerevisiae S288c, UniProt Q03530) (Q03530 whole entry): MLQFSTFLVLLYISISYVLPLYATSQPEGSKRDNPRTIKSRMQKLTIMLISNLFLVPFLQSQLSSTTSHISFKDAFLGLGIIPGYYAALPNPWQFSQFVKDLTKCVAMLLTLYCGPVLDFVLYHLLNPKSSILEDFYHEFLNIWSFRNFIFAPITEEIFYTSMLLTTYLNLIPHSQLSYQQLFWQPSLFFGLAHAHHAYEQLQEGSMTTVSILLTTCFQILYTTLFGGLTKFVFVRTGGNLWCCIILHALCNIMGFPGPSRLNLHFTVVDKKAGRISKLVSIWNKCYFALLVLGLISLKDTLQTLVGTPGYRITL

Trypsin = Trypsin (Sus scrofa, UniProt P00761); experiment: trypsin protease activity blockade – biochemical, quenched peptide fluorescence, cherry-pick, selectivity assay for Rce1 protease inhibitor project, dose response (AID 488789)
Chain of Trypsin (P00761 whole entry): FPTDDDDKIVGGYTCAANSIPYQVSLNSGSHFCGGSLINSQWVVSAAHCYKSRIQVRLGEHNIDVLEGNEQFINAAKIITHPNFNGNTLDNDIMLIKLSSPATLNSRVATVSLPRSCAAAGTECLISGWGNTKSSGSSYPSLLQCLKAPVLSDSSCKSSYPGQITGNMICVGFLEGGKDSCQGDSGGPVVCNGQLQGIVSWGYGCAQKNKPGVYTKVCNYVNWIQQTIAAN

Hexokinase-1 = Hexokinase-1 (Homo sapiens, UniProt P19367); experiment: hexokinase 1 activity inhibitors, potency – biochemical, set 2, resazurin fluorescence coupled readout, selectivity assay for HKDC1 inhibitor project, SAR follow-up (AID 588356); assay type: functional
Hexokinase HKDC1 = Hexokinase HKDC1 (Homo sapiens, UniProt Q2TB90); experiment: analog inhibition of human HKDC1 activity – biochemical, set 2, SAR follow-up (AID 588355); assay type: functional
Chain of Hexokinase HKDC1 (Q2TB90 whole entry): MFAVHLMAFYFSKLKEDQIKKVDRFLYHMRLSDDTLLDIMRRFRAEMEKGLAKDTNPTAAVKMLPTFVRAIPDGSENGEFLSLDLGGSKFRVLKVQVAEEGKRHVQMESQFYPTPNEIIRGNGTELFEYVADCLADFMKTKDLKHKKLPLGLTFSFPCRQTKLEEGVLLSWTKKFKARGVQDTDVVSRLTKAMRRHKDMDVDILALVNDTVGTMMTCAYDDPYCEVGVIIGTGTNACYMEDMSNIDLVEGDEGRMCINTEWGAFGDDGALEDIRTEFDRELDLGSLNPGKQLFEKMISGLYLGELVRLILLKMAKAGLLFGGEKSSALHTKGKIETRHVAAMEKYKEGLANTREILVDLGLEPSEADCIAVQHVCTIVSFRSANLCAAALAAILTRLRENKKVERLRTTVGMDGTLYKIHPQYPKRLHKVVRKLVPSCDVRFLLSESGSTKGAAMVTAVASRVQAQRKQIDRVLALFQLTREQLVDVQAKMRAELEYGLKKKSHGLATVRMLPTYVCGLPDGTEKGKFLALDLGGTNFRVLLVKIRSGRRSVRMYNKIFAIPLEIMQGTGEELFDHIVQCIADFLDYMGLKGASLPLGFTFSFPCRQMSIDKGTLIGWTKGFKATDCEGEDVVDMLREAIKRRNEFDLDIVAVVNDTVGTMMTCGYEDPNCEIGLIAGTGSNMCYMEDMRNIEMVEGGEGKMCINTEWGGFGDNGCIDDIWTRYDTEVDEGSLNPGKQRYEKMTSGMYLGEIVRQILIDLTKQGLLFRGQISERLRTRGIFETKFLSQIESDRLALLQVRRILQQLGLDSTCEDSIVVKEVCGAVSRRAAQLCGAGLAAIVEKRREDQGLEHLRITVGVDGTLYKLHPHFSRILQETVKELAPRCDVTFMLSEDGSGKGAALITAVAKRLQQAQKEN

Galanin receptor type 3 = target: T4, Galanin receptor type 3 (Homo sapiens, UniProt O60755); experiment: Fluorescence-based cell-based primary high throughput dose response assay to identify antagonists of the Galanin Receptor 3 (GalR3).; assay type: functional
T4 sequence (O60755 whole entry): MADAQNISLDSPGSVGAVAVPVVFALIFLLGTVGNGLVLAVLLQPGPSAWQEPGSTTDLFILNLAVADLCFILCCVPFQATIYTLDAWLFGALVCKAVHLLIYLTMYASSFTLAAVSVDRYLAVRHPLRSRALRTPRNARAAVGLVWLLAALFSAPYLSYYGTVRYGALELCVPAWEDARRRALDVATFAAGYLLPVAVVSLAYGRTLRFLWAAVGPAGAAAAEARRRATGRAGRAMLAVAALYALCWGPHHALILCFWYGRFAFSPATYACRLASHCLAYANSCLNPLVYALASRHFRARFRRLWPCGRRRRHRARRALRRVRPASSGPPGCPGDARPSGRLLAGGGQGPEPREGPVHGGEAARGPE

[17] = HEK-293T viability loss, compound-treated – cell-based, uHTS hits, cytotoxicity control for B/T-cell NF-kB inhibitor project, dose response (AID 489019); assay type: functional;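 note: IC50 reflects cytotoxicity as loss of cell viability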
[18] = alpha-synuclein stem-loop luciferase translation blockers – H4 neuroglioma cells, luminescence, confirmation (AID 1988); assay type: functional, cell-based
[19] = luciferase reporter signal suppression in cells – H4 neuroglioma cells, luminescence, dose response (AID 1990); assay type: functional, cell-based
Jurkat = experiment: blockers of NF-kB activation in T cells – Jurkat, luciferase reporter, luminescence, B- and T-cell, dose response (AID 489004); assay type: functional, cell-based; conditions: Homo sapiens;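 note: NF-kB luciferase reporter Jurkat cells stimulated with PMA plus ionomycin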
[20] = target: COUP transcription factor 2 (Homo sapiens, UniProt P24468); experiment: Luminescence-based cell-based high throughput dose response assay to identify inhibitors of COUP-TFII (NR2F2).; assay type: functional;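 note: HEK293 cells transiently cotransfected with COUP-TFII expression vector and reporter; luciferase reporter luminescence driven by COUP-TFII from the pX2-168 reporter plasmid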
Chain of COUP transcription factor 2 (P24468 whole entry): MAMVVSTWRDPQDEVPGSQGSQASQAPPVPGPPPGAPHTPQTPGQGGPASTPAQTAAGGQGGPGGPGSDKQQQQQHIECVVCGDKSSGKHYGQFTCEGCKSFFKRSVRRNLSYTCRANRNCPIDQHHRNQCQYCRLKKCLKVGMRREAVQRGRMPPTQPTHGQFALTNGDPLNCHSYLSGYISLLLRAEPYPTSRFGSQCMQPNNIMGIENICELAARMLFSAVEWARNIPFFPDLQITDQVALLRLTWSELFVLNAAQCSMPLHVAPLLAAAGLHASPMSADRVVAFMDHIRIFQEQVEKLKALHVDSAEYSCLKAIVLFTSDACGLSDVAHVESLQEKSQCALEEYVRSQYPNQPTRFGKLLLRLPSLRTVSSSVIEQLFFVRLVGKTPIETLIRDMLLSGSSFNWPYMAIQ

[21] = reduction of Shn3 3'UTR-driven luciferase in osteoblasts – cell-based, Clone20 osteoblasts, firefly luciferase, cherry-picked, dose response (AID 624132); assay type: functional;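 note: firefly luciferase luminescence from reporter carrying the Shn3 3'UTR in osteoblasts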
[22] = non-specific 3'UTR reporter inhibition in Clone20-Shn3RL – cell-based, Renilla luciferase, cherry-picked, counter-screen for Shn3 inhibitor project, dose response (AID 624133); assay type: functional
[23] = Luminescence Cell-Based Dose Response HTS to Identify Inhibitors of 5'UTR Stem-Loop Driven Prion Protein mRNA Translation in H4 Neuroglioblastoma Cells. [Related pubchem assays: 1827 (Project Summary), 1813 (Primary HTS)]; assay type: functional
INS1 = experiment: INS-1E survival protection against cytokine death – cell-based, luminescence, retest, dose response (AID 449756); assay type: functional; conditions: Rattus norvegicus;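 note: cell death triggered by IL-1 beta plus TNF-alpha plus IFN-gamma mixture; protective hits raise ATP signal compared with cytokine alone wells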
[24] = loss of viability in HepG2 cells – cell-based, CellTiter-Glo, cherry-picked, cytotoxicity control for Shn3 inhibitor project, dose response (AID 624134); assay type: functional
cells = assay type: functional, cell-based; conditions: HEK-CNG
[25] = target: Delta-type opioid receptor (Homo sapiens, UniProt P41143); experiment: Counterscreen for agonists of heterodimerization of the mu 1 (OPRM1) and delta 1 (OPRD1) opioid receptors: Luminescence-based cell-based high throughput dose response assay to identify agonists of OPRD1 homodimerization. [Related pubchem assays (depositor defined):AID504326, AID504355, AID504692, AID504904, AID504905]; assay type: functional
Chain of Delta-type opioid receptor (P41143 whole entry): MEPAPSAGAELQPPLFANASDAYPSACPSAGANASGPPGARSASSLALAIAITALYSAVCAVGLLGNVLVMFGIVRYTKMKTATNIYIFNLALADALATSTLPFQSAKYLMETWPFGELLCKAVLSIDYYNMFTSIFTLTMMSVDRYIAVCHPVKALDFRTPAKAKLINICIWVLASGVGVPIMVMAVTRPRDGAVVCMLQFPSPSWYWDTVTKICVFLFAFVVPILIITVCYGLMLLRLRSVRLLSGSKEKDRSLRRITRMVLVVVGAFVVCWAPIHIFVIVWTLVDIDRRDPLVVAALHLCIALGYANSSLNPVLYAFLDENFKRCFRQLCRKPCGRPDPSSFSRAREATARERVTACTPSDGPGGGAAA

[26] = target: Opioid receptors; mu & delta (Homo sapiens, UniProt P41143+P35372); experiment: OPRM1-OPRD1 heterodimer agonist potency – cell-based, luminescence, dose response (AID 588407); assay type: functional
Vero [27] = experiment: cells; assay type: functional; conditions: Chlorocebus sabaeus
[28] = target: 5-hydroxytryptamine receptor 5A (Homo sapiens, UniProt P47898); experiment: Counterscreen for agonists of OPRM1-OPRD1 heterodimerization: luminescence-based cell-based high throughput dose response assay to identify agonists of 5-hydroxytryptamine (serotonin) 5A receptor (HTR5A). [Related pubchem assays (depositor defined):AID504326, AID504355, AID504692, AID504904, AID504905]; assay type: functional
Chain of 5-hydroxytryptamine receptor 5A (P47898 whole entry): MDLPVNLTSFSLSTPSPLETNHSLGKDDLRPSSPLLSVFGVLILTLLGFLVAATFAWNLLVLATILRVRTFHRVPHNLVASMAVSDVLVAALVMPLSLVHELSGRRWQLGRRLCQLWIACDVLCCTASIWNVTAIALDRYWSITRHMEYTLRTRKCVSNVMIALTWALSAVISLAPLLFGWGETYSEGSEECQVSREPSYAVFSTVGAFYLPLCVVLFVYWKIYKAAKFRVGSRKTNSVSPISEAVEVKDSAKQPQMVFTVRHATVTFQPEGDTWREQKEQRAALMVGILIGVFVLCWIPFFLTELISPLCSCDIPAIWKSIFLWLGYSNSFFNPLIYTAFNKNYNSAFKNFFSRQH

Mu-type opioid receptor = Mu-type opioid receptor (Homo sapiens, UniProt P35372); experiment: Counterscreen for agonists of heterodimerization of the mu 1 (OPRM1) and delta 1 (OPRD1) opioid receptors: Luminescence-based cell-based high throughput dose response assay to identify agonists of OPRM1 homodimerization.; assay type: functional;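 note: U2OS cells expressing OPRM1 and beta-arrestin as split beta-galactosidase partners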
Chain of Mu-type opioid receptor (P35372 whole entry): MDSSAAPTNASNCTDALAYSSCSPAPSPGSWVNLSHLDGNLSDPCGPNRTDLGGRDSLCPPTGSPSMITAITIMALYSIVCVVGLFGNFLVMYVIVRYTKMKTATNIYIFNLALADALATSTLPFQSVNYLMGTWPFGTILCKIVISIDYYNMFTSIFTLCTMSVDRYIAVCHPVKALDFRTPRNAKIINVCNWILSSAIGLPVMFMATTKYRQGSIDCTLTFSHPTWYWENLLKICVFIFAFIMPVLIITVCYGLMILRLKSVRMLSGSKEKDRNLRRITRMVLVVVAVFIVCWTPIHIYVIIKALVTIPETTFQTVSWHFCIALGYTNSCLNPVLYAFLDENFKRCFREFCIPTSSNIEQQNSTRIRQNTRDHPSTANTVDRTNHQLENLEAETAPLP

Vero [29] = experiment: cells; assay type: functional, cell-based; conditions: Chlorocebus sabaeus

Chain of NS3 (A3EZJ3 whole entry): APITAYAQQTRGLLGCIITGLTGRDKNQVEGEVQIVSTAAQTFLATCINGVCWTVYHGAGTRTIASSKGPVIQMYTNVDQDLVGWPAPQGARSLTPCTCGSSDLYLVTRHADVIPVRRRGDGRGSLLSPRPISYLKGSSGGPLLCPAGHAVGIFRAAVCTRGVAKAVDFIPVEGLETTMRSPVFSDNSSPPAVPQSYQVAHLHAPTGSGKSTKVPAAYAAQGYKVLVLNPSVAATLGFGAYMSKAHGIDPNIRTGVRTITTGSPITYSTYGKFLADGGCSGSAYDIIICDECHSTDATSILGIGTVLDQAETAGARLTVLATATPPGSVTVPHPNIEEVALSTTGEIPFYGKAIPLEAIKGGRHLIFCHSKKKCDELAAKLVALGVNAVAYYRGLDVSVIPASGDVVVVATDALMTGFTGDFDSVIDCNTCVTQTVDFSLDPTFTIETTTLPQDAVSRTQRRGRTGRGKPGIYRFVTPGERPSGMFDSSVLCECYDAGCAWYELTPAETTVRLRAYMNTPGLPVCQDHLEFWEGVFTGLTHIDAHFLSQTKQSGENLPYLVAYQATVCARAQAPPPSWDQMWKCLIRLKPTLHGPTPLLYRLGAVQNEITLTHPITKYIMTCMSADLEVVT

Cc1ccc(/C=C/C(=O)c2ccccc(=O)c2O)cc1C
> 150 µM (not active): EC50 (BJ [5]) | EC50 (Streptokinase A)
inconclusive: EC50 [9] > 160 µM
active: AC50 [1] 4.22 µM | IC50 (NS3) 2.63 µM | EC50 [2] 12.9 µM | EC50 [3] 40 µM | EC50 [4] 1.83 µM | EC50 [6] 77.7 µM | EC50 [7] 5.55 µM | EC50 [8] 2.09 µM | EC50 [10] 17.5 µM | EC50 [11] 0.851 µM | EC50 (BJ [12]) 24.9 µM | EC50 [13] 5.05 µM | EC50 (Streptococcus) 11.5 µM | EC50 (BJ [14]) 23.7 µM

COc1ccc(C(S)=Nc2ccc(C)cc2)cc1
active: AC50 (HeLa) 194 µM

CCNc1nc(C)c(CN(C(C)=O)c2ccccc2)nc1C#N
inactive: EC50 (Kallikrein-7) > 69.5 µM
active: AC50 (CAAX prenyl protease 2 [15]) 5.91 µM | AC50 (CAAX prenyl protease 2 [16]) 48.9 µM | AC50 (Trypsin) 5.26 µM

CCOc1ccc(N2C(=O)c3cccnc3C2Nc2ccc(C)c(C)c2)cc1 (stereo unspecified)
inactive: IC50 (Hexokinase-1) > 80 µM | IC50 (Hexokinase HKDC1) 77.1 µM

COc1ccc(CCNc2ncnc3sc(C)cc23)cc1OC
> 120 µM (not active): EC50 [18] | EC50 [19] | EC50 [23]
active: IC50 (Galanin receptor type 3) 0.43 µM | IC50 [20] 2.21 µM | EC50 [11] 0.767 µM | AC50 [21] < 0.26 µM | AC50 [22] 0.796 µM | AC50 (INS1) 0.902 µM | AC50 [24] 0.739 µM
inactive: IC50 [17] > 80 µM | EC50 [7] > 180 µM | EC50 [8] > 150 µM | IC50 (Jurkat) 45.3 µM | EC50 [9] > 150 µM | EC50 (cells) > 29.9 µM

CO[C@H]1[C@H](O)[C@H](O[C@H]2CC[C@@]3(C=O)[C@H](CC[C@@H]4[C@@H]3CC[C@]3(C)[C@@H](C5=CC(=O)OC5)CC[C@]43O)C2)O[C@@H](C)[C@@H]1O [PERUVOSIDE]
active: CC50 (Vero [27]) < 0.05 µM | IC50 (Vero [29]) < 0.05 µM
> 0.1268 µM: EC50 [26]
inactive: EC50 [25] > 92.5 µM | EC50 [28] > 92.5 µM | EC50 (Mu-type opioid receptor) > 92.5 µM
